# Legend:
# Type in all cases: physicochemical
# solubility in water = experiment: solubility in water
# [1] = solubility of the benzodiazepine in prior-art type carriers
# [2] = maximum solubility of the benzodiazepine in carriers of the invention
smiles,measurement,setting,value
"Cc1cccc(NC(=O)NC2N=C(c3ccccc3)c3ccccc3N(C)C2=O)c1 (stereo not drawn) [(A), 3R(+)-N-(2,3-dihydro-1-methyl-2-oxo-5-phenyl-1H-1,4-benzodiazepin-3-yl)-N'-(3-methylphenyl)-urea]",solubility,solubility in water,< 2 µg/mL
same,solubility (carrier a poor solvent),[1]; benzodiazepine substituted for cyclosporin in formulation type of GB 2 228 198 (Maisine and Cremophore RH40),less than 10 mg/g
same,solubility,[1]; benzodiazepine substituted for cyclosporin in formulation type of GB 2015339 (Labrafil M1944CS and ethanol with corn oil or olive oil; or glycerol mono-oleate and ethanol),~20 mg/g
same,solubility,"[1]; benzodiazepine substituted for dihydrocyclosporin in formulation type of BE 895 724 (ethanol, Imwitor 742, esterified corn oil)",~60 mg/g
same,amount that can be dissolved,"[2]; Method 2 (room temperature method, 20°C, Silverson mixer), Labrafil M2125 CS, Tween 80, propylene glycol, purified water",up to 6 % (w/w)
same,maximum solubility for the benzodiazepine,[2]; carrier Labrasol/Tween 80,~240 mg/g
same,maximum solubility for the benzodiazepine,[2]; carrier comprising Imwitor 742 and Tween 80,~140 mg/g
same,maximum solubility for the benzodiazepine,[2]; corresponding Labrafil-containing carrier,60 to 80 mg/g
same,solubility in the mixture of ingredients of the carrier,[2]; mixture of carrier ingredients compared with the separate ingredients,more than in the separate ingredients
same,percentage of the active ingredient that can be dissolved in the carrier,[2]; without heating,around 6%

# Reference: patent EP0517412A1, “Pharmaceutical formulations of a benzodiazepine” (MERCK SHARP & DOHME LTD., priority 1991, dated 1992)
